Source: US6440984B1, “Use of aryl-substituted pyrimidines as insecticidal and acaricidal agents” (BASF Aktiengesellschaft, priority 1998, dated 2002)

What was measured:
Assay type in all cases: in vivo
[1] = test system: Aphis Fabae, Mixed Instar, Bean Aphid (BA); assay: Bean aphid (BA) foliar spray test, mortality after 2 days; details: rating scale; for pest or weed control at 300 ppm: Aphis fabae, 48 h, read-out: BA AD-FOLIAR 300 (ppm)
Method: (§1) Test solutions are prepared by dissolving the test compound in a 35% acetone in water mixture to give a concentration of 10,000 ppm. Subsequent dilutions are made with water as needed.
Aphis Fabae, Mixed Instar, Bean Aphid (BA)
Pots containing single nasturtium plants (Tropaeolum sp.) about 5 cm tall are infested with about 100-200 aphids one day before the test. Each pot is sprayed with the test solution for 2 revolutions of a 4 rpm turntable in a hood. The spray is directed to give complete coverage of the plants and aphids. The sprayed pots are set on their sides on white trays and held for 2 days, following which mortality estimates are made. Essentially the same method is used with respect to cotton aphid (CA).

[2] = test system: Spodoptera Eridania, 3rd Instar Larvae, Southern Armyworm (SAW); assay: Southern armyworm (SAW) leaf-dip test, observations at 5 days; details: Southern Army Worm, rating scale; for pest or weed control at 1000 ppm: Spodoptera eridania, foliar, 120 h, read-out: SAW 2^ND-FOLIAR 1000 (ppm)
Method: as §1
Spodoptera Eridania, 3rd Instar Larvae, Southern Armyworm (SAW)
A Sieva lima bean leaf expanded to 7-8 cm in length is dipped in the test solution with agitation for 3 seconds and allowed to dry in a hood. The leaf is then placed in a 100×10 mm petri dish containing a damp filter paper on the bottom and ten 3rd instar caterpillars. At 5 days, observations are made of mortality, reduced feeding, or any interference with normal molting.

[3] = test system: Tetranychus Urticae (OP-resistant strain), 2-spotted Spider Mite (TSM); assay: Two-spotted spider mite (TSM) plant-dip test, mortality after 2 days; details: rating scale; for pest or weed control at 300 ppm: Tetranychus urticae, 48 h, read-out: TSM AD-FOLIAR 300 (ppm)
Method: as §1
Tetranychus Urticae (OP-resistant strain), 2-spotted Spider Mite (TSM)
Sieva lima bean plants with primary leaves expanded to 7-8 cm are selected and cut back to one plant per pot. A small piece is cut from an infested leaf taken from the main colony and placed on each leaf of the test plants. This is done about 2 hours before treatment to allow the mites to move over to the test plant to lay eggs. The size of the cut, infested leaf is varied to obtain about 100 mites per leaf. At the time of test treatment, the piece of leaf used to transfer the mites is removed and discarded. The newly-infested plants are dipped in the test solution for 3 seconds with agitation and set in the hood to dry. After 2 days, one leaf is removed and mortality counts are made.

[4] = test system: Diabrotica Virgifera Virgifera Leconte, 3rd Instar Western Corn Rootworm (WCR); assay: Western corn rootworm (WCR) soil test, mortality at 5 days; details: rating scale; for pest or weed control at 50 ppm: Diabrotica virgifera, 120 h, read-out: WCR 2^ND-SOIL 50 (ppm)
Method: Diabrotica Virgifera Virgifera Leconte, 3rd Instar Western Corn Rootworm (WCR) One cc of fine talc is placed in a 30 mL wide-mouth screw-top glass jar. One mL of the appropriate acetone test solution is pipetted onto the talc so as to provide 1.25 mg of active ingredient per jar. The jars are set under a gentle air flow until the acetone is evaporated. The dried talc is loosened, 1 cc of millet seed is added to serve as food for the insects and 25 mL of moist soil is added to each jar. The jar is capped and the contents thoroughly mixed mechanically. Following this, ten 3rd instar rootworms are added to each jar and the jars are loosely capped to allow air exchange for the larvae. The treatments are held for 5 days when mortality counts are made. Missing larvae are presumed dead, since they decompose rapidly and can not be found. The concentrations of active ingredient used in this test correspond approximately to 50 kg/ha.

Row | Compound | pest or weed control at 50 ppm [4] | WCR 2^ND-SOIL 50 (ppm) [4] | BA AD-FOLIAR 300 (ppm) [1] | also measured
1 | CCc1cnc(Oc2cccc(C(F)(F)F)c2)nc1-c1cccc(C(F)(F)F)c1 [Compound 157] | 76 to 100% | – | – | pest or weed control at 300 ppm [1]: 45 to 75%; pest or weed control at 1000 ppm [2]: 0 to 45%; pest or weed control at 300 ppm [3]: 45 to 75%
2 | CS(=O)(=O)c1cc(-c2ccc(Cl)c(Cl)c2)nc(Oc2ccc(F)c(C(F)(F)F)c2)n1 [Compound 92, 2-(3-trifluoromethyl-4-fluorophenoxy)-4-(3,4-dichlorophenyl)-6-methylsulfonylpyrimidine] | 76 to 100% | – | – | –
3 | Fc1ccc(-c2ccnc(Oc3cccc(C(F)(F)F)c3)n2)cc1 [Compound 23] | – | B (B 45-75% kill) | – | TSM AD-FOLIAR 300 (ppm) [3]: A (A 0-45% kill)
4 | Fc1ccc(Oc2nccc(-c3ccc(Cl)cc3)n2)cc1F [Compound 139] | 76 to 100% | – | – | pest or weed control at 300 ppm [1]: 76 to 100%
5 | CCc1ccc(-c2ccnc(Oc3ccc(Cl)c(Cl)c3)n2)cc1 [Compound 12] | – | C (C 76-100% kill) | – | SAW 2^ND-FOLIAR 1000 (ppm) [2]: C (C 76-100% kill); TSM AD-FOLIAR 300 (ppm) [3]: C (C 76-100% kill)
6 | FC(F)(F)c1ccc(-c2ccnc(Oc3cccc(C(F)(F)F)c3)n2)cc1 [Compound 144] | 76 to 100% | – | – | pest or weed control at 300 ppm [1]: 45 to 75%; pest or weed control at 1000 ppm [2]: 0 to 45%
7 | FC(F)(F)Oc1ccc(-c2ccnc(Oc3ccc(Cl)c(Cl)c3)n2)cc1 [Compound 50] | – | C (C 76-100% kill) | B (B 45-75% kill) | SAW 2^ND-FOLIAR 1000 (ppm) [2]: A (A 0-45% kill)
8 | FC(F)(F)Oc1cccc(-c2ccnc(Oc3ccc(Cl)c(C(F)(F)F)c3)n2)c1 [Compound 39] | – | B (B 45-75% kill) | – | TSM AD-FOLIAR 300 (ppm) [3]: A (A 0-45% kill)
9 | Cc1cnc(Oc2cccc(C(F)(F)F)c2)nc1-c1ccccc1 [Compound 163] | 76 to 100% | – | – | pest or weed control at 300 ppm [1]: 0 to 45%; pest or weed control at 300 ppm [3]: 45 to 75%
10 | COc1ccc(-c2ccnc(Oc3ccc(Cl)c(C(F)(F)F)c3)n2)cc1 [Compound 35] | – | C (C 76-100% kill) | – | –
11 | FC(F)(F)c1ccc(-c2ccnc(Oc3ccc(Cl)c(C(F)(F)F)c3)n2)cc1 [Compound 145] | 76 to 100% | – | – | pest or weed control at 300 ppm [1]: 45 to 75%; pest or weed control at 1000 ppm [2]: 0 to 45%
12 | Fc1cc(-c2ccnc(Oc3ccc(Cl)c(C(F)(F)F)c3)n2)cc(C(F)(F)F)c1 [Compound 51] | – | C (C 76-100% kill) | – | SAW 2^ND-FOLIAR 1000 (ppm) [2]: B (B 45-75% kill)
13 | FC(F)(F)Oc1cccc(-c2ccnc(Oc3cccc(C(F)(F)F)c3)n2)c1 [Compound 38] | – | C (C 76-100% kill) | A (A 0-45% kill) | TSM AD-FOLIAR 300 (ppm) [3]: A (A 0-45% kill)
14 | CC(C)(C)c1ccc(-c2ccnc(Oc3ccc(Cl)c(Cl)c3)n2)cc1 [Compound 27] | – | C (C 76-100% kill) | B (B 45-75% kill) | –
15 | CC(C)(C)c1ccc(-c2ccnc(Oc3ccc(F)c(C(F)(F)F)c3)n2)cc1 [Compound 24] | – | C (C 76-100% kill) | A (A 0-45% kill) | –
16 | Fc1ccc(-c2ccnc(Oc3ccc(C(F)(F)F)c(F)c3)n2)cc1 [Compound 135] | – | – | – | pest or weed control at 300 ppm [1]: 0 to 45%; pest or weed control at 1000 ppm [2]: 0 to 45%; pest or weed control at 300 ppm [3]: 0 to 45%
17 | CCc1cnc(Oc2ccc(F)c(C(F)(F)F)c2)nc1-c1cccc(C(F)(F)F)c1 [Compound 156] | – | – | – | pest or weed control at 300 ppm [1]: 76 to 100%; pest or weed control at 1000 ppm [2]: 0 to 45%; pest or weed control at 300 ppm [3]: 45 to 75%
18 | CSc1cc(-c2cccc(Cl)c2)nc(Oc2ccc(Cl)c(C(F)(F)F)c2)n1 [Compound 125] | – | B (B 45-75% kill) | – | –
19 | Fc1ccc(Oc2nccc(-c3ccc(C(F)(F)F)cc3)n2)cc1C(F)(F)F [Compound 29] | – | – | A (A 0-45% kill) | SAW 2^ND-FOLIAR 1000 (ppm) [2]: A (A 0-45% kill); TSM AD-FOLIAR 300 (ppm) [3]: B (B 45-75% kill)

Row | Compound | pest or weed control at 50 ppm [4] | WCR 2^ND-SOIL 50 (ppm) [4] | BA AD-FOLIAR 300 (ppm) [1] | also measured
20 | CSc1cc(-c2ccc(Cl)cc2)nc(Oc2ccc(F)c(C(F)(F)F)c2)n1 [Compound 114] | 76 to 100% | – | – | –
21 | FC(F)(F)Oc1cccc(-c2ccnc(Oc3cc(C(F)(F)F)cc(C(F)(F)F)c3)n2)c1 [Compound 42] | – | B (B 45-75% kill) | B (B 45-75% kill) | TSM AD-FOLIAR 300 (ppm) [3]: C (C 76-100% kill)
22 | O=[N+]([O-])c1ccc(Oc2nccc(-c3cc(F)cc(C(F)(F)F)c3)n2)cc1C(F)(F)F [Compound 57] | – | C (C 76-100% kill) | – | –
23 | Fc1ccc(Oc2nccc(-c3ccc(OC(F)(F)F)cc3)n2)cc1C(F)(F)F [Compound 47] | – | – | A (A 0-45% kill) | SAW 2^ND-FOLIAR 1000 (ppm) [2]: A (A 0-45% kill); TSM AD-FOLIAR 300 (ppm) [3]: B (B 45-75% kill)
24 | Fc1cc(-c2ccnc(Oc3cc(C(F)(F)F)cc(C(F)(F)F)c3)n2)cc(C(F)(F)F)c1 [Compound 60] | – | C (C 76-100% kill) | – | SAW 2^ND-FOLIAR 1000 (ppm) [2]: C (C 76-100% kill)
25 | Fc1cc(-c2ccnc(Oc3cc(Cl)cc(Cl)c3)n2)cc(C(F)(F)F)c1 [Compound 59] | – | C (C 76-100% kill) | B (B 45-75% kill) | –
26 | Fc1cc(-c2ccnc(Oc3ccc(F)c(Cl)c3)n2)cc(C(F)(F)F)c1 [Compound 56] | – | B (B 45-75% kill) | – | –
27 | CCc1cnc(Oc2ccc(F)c(C(F)(F)F)c2)nc1-c1ccc(Cl)cc1 [Compound 132] | – | – | – | pest or weed control at 300 ppm [1]: 76 to 100%; pest or weed control at 1000 ppm [2]: 0 to 45%; pest or weed control at 300 ppm [3]: 45 to 75%
28 | Fc1ccc(Oc2nccc(-c3ccc(C(F)(F)F)cc3)n2)cc1C(F)(F)F [Compound 129] | 45 to 75% | – | – | pest or weed control at 300 ppm [1]: 45 to 75%; pest or weed control at 1000 ppm [2]: 0 to 45%
29 | CSc1cc(-c2ccc(Cl)c(Cl)c2)nc(Oc2ccc(F)c(C(F)(F)F)c2)n1 [Compound 85, 2-(3-Trifluoromethyl-4-fluorophenoxy)-4-(3,4-dichlorophenyl)-6-thiomethylpyrimidine] | 76 to 100% | – | – | –
30 | FC(F)(F)c1ccc(Oc2nccc(-c3ccccc3)n2)cc1Cl [Compound 7] | – | C (C 76-100% kill) | – | –
31 | CCc1cnc(Oc2cccc(C(F)(F)F)c2)nc1-c1ccc(Cl)cc1 [Compound 131] | 76 to 100% | – | – | pest or weed control at 1000 ppm [2]: 0 to 45%
32 | CCc1cnc(Oc2ccc(Cl)c(C(F)(F)F)c2)nc1-c1cccc(C(F)(F)F)c1 [Compound 158] | 76 to 100% | – | – | pest or weed control at 1000 ppm [2]: 0 to 45%
33 | Fc1ccc(Oc2nccc(-c3cccc(C(F)(F)F)c3)n2)cc1C(F)(F)F [Compound 21] | – | C (C 76-100% kill) | A (A 0-45% kill) | TSM AD-FOLIAR 300 (ppm) [3]: A (A 0-45% kill)
34 | CCCc1cnc(Oc2ccc(F)c(C(F)(F)F)c2)nc1-c1cccc(C(F)(F)F)c1 [Compound 160] | 76 to 100% | – | – | pest or weed control at 1000 ppm [2]: 0 to 45%; pest or weed control at 300 ppm [3]: 0 to 45%
35 | O=[N+]([O-])c1ccc(Oc2nccc(-c3cccc(C(F)(F)F)c3)n2)cc1C(F)(F)F [Compound 19] | – | C (C 76-100% kill) | A (A 0-45% kill) | –
36 | FC(F)(F)Oc1cccc(-c2ccnc(Oc3ccc(Cl)c(Cl)c3)n2)c1 [Compound 43] | – | C (C 76-100% kill) | C (C 76-100% kill) | TSM AD-FOLIAR 300 (ppm) [3]: C (C 76-100% kill)
37 | FC(F)(F)c1ccc(-c2ccnc(Oc3cccc(C(F)(F)F)c3)n2)cc1 [Compound 30] | – | – | A (A 0-45% kill) | SAW 2^ND-FOLIAR 1000 (ppm) [2]: A (A 0-45% kill); TSM AD-FOLIAR 300 (ppm) [3]: B (B 45-75% kill)
